# Experiments:
# Pdk4 = Pdk4 mRNA expression by RT-qPCR in L929sA WT cells; type: cell-based, mouse; conditions: 10 µM, 6 h
# Procedure: (§1) RNA was isolated using the RNeasy Purification Kit (Qiagen) according to the manufacturer's instructions. cDNA was synthesised using a PrimeScript kit (Takara). RT-qPCR was performed using Light Cycler 480 SYBR Green I Master Mix (Roche).
# (§2) Pyruvate Dehydrogenase Kinase 4 gene (Pdk4), a well-known target gene of PPARs, encodes a protein that regulates the phosphorylation and inactivation of the pyruvate dehydrogenase complex in response to physiological conditions. This response switches the energy source from glucose to fatty acids to maintain blood glucose levels to, thereby, increase lipid metabolism. Because it is a well-known target gene of PPARs, the effect of the 2- and 3-prenylated esters of tetrahydroquinolines and quinolines on a Pdk4 region reported to bind PPARα, was evaluated. The L929sA cells that were stably transfected with a PDK4-(PPRE)3-Luc+ reporter gene construct were used.
# hPPARγ = target: T1, hPPARγ (Homo sapiens, UniProt P37231); assay: PPAR transactivation assay, human chimeric PPAR/Gal4 reporter luciferase system in Cos-7 cells (PPARγ); type: cell-based; conditions: for Emax at 10 µM: COS-7, read-out: Efficacy (%) at 10 µmol/L PPARγ; for EC50: human PPARγ/Gal4, Cos-7 cells, concentration range 0.001-10 µmol/L, NA: not active
# T1 sequence (P37231 238-505): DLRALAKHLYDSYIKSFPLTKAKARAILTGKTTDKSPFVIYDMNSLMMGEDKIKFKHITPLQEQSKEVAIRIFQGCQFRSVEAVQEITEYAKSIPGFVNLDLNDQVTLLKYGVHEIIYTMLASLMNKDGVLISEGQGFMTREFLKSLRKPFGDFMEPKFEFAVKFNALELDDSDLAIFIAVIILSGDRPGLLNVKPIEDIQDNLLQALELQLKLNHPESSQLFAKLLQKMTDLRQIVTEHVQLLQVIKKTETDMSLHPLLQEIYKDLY
# Procedure: (§3) Transfections were stopped after 16 h by adding DMEM/10% FCS. Cells were detached with trypsin, re-seeded in 96-well plates for 6 h in DMEM/10% FCS, and incubated for 24 h in DMEM/0.2% FCS with increasing concentrations of the test compounds or vehicle (DMSO, 0.1% final concentration). At the end of the experiment, cells were washed once with ice-cold PBS, lysed, and luciferase and β-galactosidase activities were measured. Luciferase activity was normalised to that of the internal control, β-galactosidase. All transfection experiments were performed at least five times.
# (§4) EC50 values against human PPARα/Gal4, PPARβ/δ/Gal4 and PPARγ/Gal4 receptors.
# PDK4-(PPRE)3-Luc+ = assay: Pdk4 transactivation assay (PDK4-(PPRE)3-Luc+ reporter in L929sA cells); type: cell-based, mouse; conditions: 10 µM, 6 h, L929sA cells; compared to GW7647 at 1 µM
# Procedure: Transfection of L929sA cells stably expressing reporter genes was performed using the calcium phosphate precipitation protocol according to standard procedures with a 10-fold excess of the plasmid of interest in a pGL3-basic vector containing Luc+, a modified firefly luciferase gene (Promega Biotec, Madison, Wis,) USA. USA). The Pdk4 reporter was created using an enhancer site linked to the Pdk4 promoter containing three PPRE extracted from mouse liver genomic DNA. The aforementioned plasmid construct was then introduced into a pMet7 backbone, which had previously been cloned with a luciferase gene site, using Xhol and Sacl cut sites. The resulting construct was subjected to geneticin (neomycin) antibiotic selection to isolate individual clones. A stable cell line, designated Pdk4-Luc+, was subsequently established in L929sA cells, which also contained a constitutively expressed galactosidase reporter and a neomycin selection cassette.
# as §2
# [1] = test system: TNFα-induced proinflammatory genes; assay: TNFα-induced pro-inflammatory gene expression by RT-qPCR in L929sA WT cells; type: cell-based, mouse; conditions: 10 µM for 1 h, then TNFa, total induction time 6 h
# Procedure: as §1
# (§5) PPARs play crucial roles in controlling inflammatory responses. NF-κB is a transcription factor that plays a pivotal role in the expression of multiple genes involved in the immune and inflammatory responses. To study the potential anti-inflammatory effects of the tetrahydroquinolines and quinolines of the invention, the NF-κB-dependent physiological human IL-8 promoter construct, p1481.IL8P-Luc+, which is stably integrated into L929sA cells, was tested. After transfection, cells were treated at 10 µM with 5a, 5b, 8a, or 8b prior to TNFa stimulation. […] Given the significant decrease in NF-κB-IL8P-Luc+ reporter gene activity observed after treatment with the 2- or 3-prenylated tetrahydroquinolines 5a and 5b and the 3-prenylated quinoline 8b, their potential anti-inflammatory effects at the transcriptional level for other inflammatory mediators was evaluated. To achieve this, the L929sA WT cells were treated with 5a, 5b and 8b at 10 µM for 1 h, followed by TNFa stimulation for a total induction time of 6 h. The expression of inflammatory genes was evaluated by RT-qPCR.
# NF-κB-IL8P-Luc+ = assay: NF-κB-IL8P transactivation assay (TNFα-stimulated L929sA cells); type: cell-based, mouse; conditions: 10 µM, 1 h before TNF (2000 IU/ml), total induction time 6 h; compared to GW7647
# Procedure: L929sA mouse fibroblasts were stably transfected using the calcium phosphate precipitation protocol, as described previously with p1481.IL8P-Luc+ plasmid construct. The indicated induction was performed at least in triplicates. All conditions were solvent-controlled. Subsequently, the cells were washed with PBS and lysed using TROPIX lysis buffer. Cellular luciferase levels were normalised to those of β-galactosidase (TROPIX, Bedford, MA, USA).
# as §5
# hPPARα = target: T2, hPPARα (Homo sapiens, UniProt Q07869); assay: PPAR transactivation assay, human chimeric PPAR/Gal4 reporter luciferase system in Cos-7 cells (PPARα); type: cell-based; conditions: for Emax: COS-7, read-out: efficiencies times higher than the prior art compound WY-14,643; for Emax at 10 µM: COS-7, read-out: Efficacy (%) at 10 µmol/L PPARα
# T2 sequence (Q07869 167-468): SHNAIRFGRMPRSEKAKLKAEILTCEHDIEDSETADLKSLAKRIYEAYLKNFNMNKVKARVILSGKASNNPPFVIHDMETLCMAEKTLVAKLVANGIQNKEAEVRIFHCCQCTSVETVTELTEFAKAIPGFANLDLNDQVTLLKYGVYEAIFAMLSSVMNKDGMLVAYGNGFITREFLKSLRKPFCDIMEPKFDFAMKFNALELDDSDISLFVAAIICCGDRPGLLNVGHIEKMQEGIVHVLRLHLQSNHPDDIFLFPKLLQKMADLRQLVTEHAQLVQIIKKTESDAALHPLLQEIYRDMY
# Procedure: as §3, §4
# [2] = test system: hPPARα, hPPARβ/δ, and hPPARγ; assay: PPAR transactivation assays, agonist profile over the three isoforms; conditions: always with partial activity on the PPARγ isoform
# THP-1 cells = assay: Cytotoxicity, Annexin V-FITC/PI dual staining by flow cytometry; type: cell-based, human; conditions: 30 and 100 µM, 24 h
# Procedure: The cytotoxicity of tetrahydroquinoline and quinoline esters 5a, 5b, 8a and 8b was evaluated at 30 and 100 µM by flow cytometry to assess cell survival using an Annexin V-FITC/PI dual staining assay. THP-1 cells (3 × 10^4 cells per well) were seeded in 24-well plates and allowed to grow overnight. The medium was then replaced and incubations with the different compounds or DMSO were performed during 24 h. Then, all cells were processed with the Annexin V-assay kit (ANXCFK7, Immunostep, Salamanca, Spain) according to the manufacturer's instruction. A Becton Dickinson LSR Fortessa cytometer (BD Biosciences, Franklin Lakes, NJ, USA) was used for samples, and cell analysis were performed using FACSDiva X20 software.
# The potential cytotoxic effects of the compounds of the invention 5a, 5b, 8a, and 8b on the human macrophage cell line THP-1 were evaluated by flow cytometry to assess cell survival using an Annexin V-FITC/PI dual staining assay. The THP-1 cells were treated with concentrations of 30 and 100 µM for 24 h.
# hPPARβ/δ = target: T3, hPPARβ/δ (Homo sapiens, UniProt Q03181); assay: PPAR transactivation assay, human chimeric PPAR/Gal4 reporter luciferase system in Cos-7 cells (PPARβ/δ); type: cell-based; conditions: for Emax at 10 µM: COS-7, read-out: Efficacy (%) at 10 µmol/L PPARβ/δ; for EC50: human PPARβ/δ/Gal4, Cos-7 cells, concentration range 0.001-10 µmol/L, NA: not active
# T3 sequence (Q03181 171-441): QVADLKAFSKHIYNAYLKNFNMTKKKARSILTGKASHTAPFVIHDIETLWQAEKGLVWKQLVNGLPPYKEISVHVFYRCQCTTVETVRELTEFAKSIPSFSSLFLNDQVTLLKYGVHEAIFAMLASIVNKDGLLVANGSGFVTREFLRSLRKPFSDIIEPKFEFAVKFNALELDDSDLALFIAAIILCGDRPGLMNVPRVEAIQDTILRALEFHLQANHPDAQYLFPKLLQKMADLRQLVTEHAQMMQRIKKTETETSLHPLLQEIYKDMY
# Procedure: as §3, §4
Compound,expression of Pdk4 mRNA (Pdk4),Emax at 10 µM (hPPARγ) [%],EC50 (hPPARγ) [nM],transactivation of the PDK4-Luc+ indicator (PDK4-(PPRE)3-Luc+),transcription of TNFα-induced proinflammatory genes [1],transactivation of the TNFα-dependent NF-κB-driven reporter (NF-κB-IL8P-Luc+),EC50 (hPPARα) [nM],Emax (hPPARα) [%],Emax at 10 µM (hPPARα) [%],PPAR agonist activity profile [2],cytotoxic effects (cell survival) (THP-1 cells),Emax at 10 µM (hPPARβ/δ) [%],EC50 (hPPARβ/δ) [nM]
"CCOC(=O)CC/C(C)=C/CC1Cc2cc(OCc3ccccc3)ccc2N(C)C1C (stereo not shown) [Compound 5b, Ethyl (E)-6-(6-(benzyloxy)-1,2-dimethyl-1,2,3,4-tetrahydroquinolin-3-yl)-4-methylhex-4-enoate]",increased expression levels of Pdk4,15,16900,increased the transactivation of the PDK4-Luc+ indicator,downregulated the transcription of TNFα-induced proinflammatory genes such as Cc/5 and II-6,can repress the transactivation of the TNFα-dependent NF-κB-driven reporter,1900,300 to 400,328,selective PPARα,No cytotoxic effects were observed,7,5800
"C/C(=C\CCC1CCc2cc(OCc3ccccc3)ccc2N1C)CCC(=O)O (stereo not shown) [Compound 6a, (E)-7-(6-(benzyloxy)-1-methyl-1,2,3,4-tetrahydroquinolin-2-yl)-4-methylhept-4-enoic acid]",–,36,3900,–,–,–,2900,–,144,pan-PPAR agonist activity,–,73,4600
"C/C(=C\CC1Cc2cc(OCc3ccccc3)ccc2N(C)C1C)CCC(=O)O (stereo not shown) [Compound 6b, (E)-6-(6-(benzyloxy)-1,2-dimethyl-1,2,3,4-tetrahydroquinolin-3-yl)-4-methylhex-4-enoic acid]",–,24,1700,–,–,–,1300,300 to 400,461,selective PPARα,–,35,5800
"CCOC(=O)CC/C(C)=C/CCc1ccc2cc(OCc3ccccc3)ccc2n1 [Compound 8a, Ethyl (E)-7-(6-(benzyloxy)quinolin-2-yl)-4-methylhept-4-enoate]",–,–,–,increased the transactivation of the PDK4-Luc+ indicator,–,–,2800,–,210,–,No cytotoxic effects were observed,32,2000
"CCOC(=O)CC/C(C)=C/Cc1cc2cc(OCc3ccccc3)ccc2nc1C [Compound 8b, Ethyl (E)-6-(6-(benzyloxy)-2-methylquinolin-3-yl)-4-methylhex-4-enoate]",–,37,1000,–,downregulated the transcription of TNFα-induced proinflammatory genes such as Cc/5 and II-6,can repress the transactivation of the TNFα-dependent NF-κB-driven reporter,2200,–,221,dual PPARα/γ agonist activity,No cytotoxic effects were observed,2,7900
"C/C(=C\CCc1ccc2cc(OCc3ccccc3)ccc2n1)CCC(=O)O [Compound 9a, (E)-7-(6-(benzyloxy)quinolin-2-yl)-4-methylhept-4-enoic acid]",–,39,3300,–,–,–,3600,–,104,dual PPARα/γ agonist activity,–,14,1100
"C/C(=C\Cc1cc2cc(OCc3ccccc3)ccc2nc1C)CCC(=O)O [Compound 9b, (E)-6-(6-(benzyloxy)-2-methylquinolin-3-yl)-4-methylhex-4-enoic acid]",–,25,900,–,–,–,1800,–,218,dual PPARα/γ agonist activity,–,2,5100

# — EP4635565A1, “PRENYLATED TETRAHYDROQUINOLINES AND QUINOLINES WITH PPAR AGONIST ACTIVITY” (Fundación para la Investigación del Hospital Clínico de la …, priority 2024, dated 2025)
